According to patent publication US20240335465A1 (University of Virginia Patent Foundation, priority 2021, published 2024):

Assays:
γH2AX = γH2AX immunofluorescence (human RPE, THP1 cells); format: cell-based
Procedure: Immunofluorescence Staining: 16,500 adherent cells/cm^2 were plated on a gelatin coated 8-chamber slide (VWR, Catalogue #62407-296) and treated as indicated. Media was removed and cells were washed with 1×PBS with Ca^2+/Mg^2+ and fixed with 4% PFA for 20 minutes. Fixed cells were permeabilized with PBS+0.1% Triton-X and washed 3 times with PBS+0.1% Tween20. After treatment as indicated, non-adherent THP1 cells were collected by centrifugation, washed in cold PBS and fixed in PFA. Post-fixation, they were washed with PBS, spotted on gelatin coated “PTFE” Printed Slides (Electron Microscopy Sciences, Cat #63424-06), and air-dried. For γH2AX staining, permeabilized cells were blocked in Serum-free DAKO Protein Block (Agilent, Catalogue #X0909) for 1 hr at room temperature. Cells were incubated in primary antibody (γH2AX, 1:500; anti-HA, 1:100; Table 1) in DAKO antibody diluent at 4° C. overnight on a rocker platform. U2OS-STING cells undergoing Rad51 staining were first fixed in methanol for 20 minutes in −20° C., blocked for 1 hr with donkey block (2% normal donkey serum, 1% BSA, 0.1% Triton X 100, 0.05% Tween20, 0.05% Sodium Azide in PBS), then finally incubated in an anti-Rad51 antibody overnight at 4° C. (Bio-academia Cat #70-001, 1:6000 in 5% milk in TBST). For RPA70 staining, cells were fixed in 4% PFA at room temperature for 20 minutes and blocked in Cell Signaling blocking buffer (1×PBS/5% normal donkey serum/0.3% Triton™ X-100) for 1 hr in room temperature then incubated in an RPA70 antibody (Cell Signaling Cat #2267, 1:50 in blocking buffer) overnight at 4° C. Primary antibody was washed 3 times and incubated with secondary antibodies (Invitrogen, Alexa 555, 488) for 1 hr at room temperature. Coverslips were mounted on the cells with ProLong™ Gold Antifade mounting media with DAPI (Thermofisher, Catalogue #P36935). All images were obtained by confocal microscopy (Nikon, C2).

PARP1, PARP2, Tankyrase = PARP1, PARP2, Tankyrase abundance immunoblot; format: cell-based, human
PARP = PARP activity assay; format: cell-based, human
Procedure: Post cGAMP treatment, cells were collected by centrifugation and washed with cold PBS once and resuspended in Cell Extraction Buffer. PARP activity was measured using the Chemiluminescent Assay Kit (R&D, Catalog Number: 4685-096-K) following manufacturer's protocol.

[1] = system: hRPE and U2OS-STING cells; experiment: EdU incorporation assay; format: cell-based, human; settings: 18 hours
Text: (§1) EdU incorporated cells were detected by confocal microscopy after Click-iT® EdU labeling following the manufacturer's protocol (Click-iT™ EdU Alexa Fluor™ 594 Imaging Kit, Thermo Fisher Cat #C10339).

U2OS-STING cells [2] = experiment: RAD51 and RPA70 foci in EdU+ U2OS-STING cells; format: cell-based, human; settings: EdU-positive S-phase cells, Camptothecin 5 μM 16 hours
Procedure: Immunofluorescence Staining: 16,500 adherent cells/cm^2 were plated on a gelatin coated 8-chamber slide (VWR, Catalogue #62407-296) and treated as indicated. Media was removed and cells were washed with 1×PBS with Ca^2+/Mg^2+ and fixed with 4% PFA for 20 minutes. Fixed cells were permeabilized with PBS+0.1% Triton-X and washed 3 times with PBS+0.1% Tween20. After treatment as indicated, non-adherent THP1 cells were collected by centrifugation, washed in cold PBS and fixed in PFA. Post-fixation, they were washed with PBS, spotted on gelatin coated “PTFE” Printed Slides (Electron Microscopy Sciences, Cat #63424-06), and air-dried. For γH2AX staining, permeabilized cells were blocked in Serum-free DAKO Protein Block (Agilent, Catalogue #X0909) for 1 hr at room temperature. Cells were incubated in primary antibody (γH2AX, 1:500; anti-HA, 1:100; Table 1) in DAKO antibody diluent at 4° C. overnight on a rocker platform. […]
as §1

HEK293-TrLR cells = experiment: HDR and NHEJ assay using Traffic Light Reporter; format: cell-based, human
Procedure: TrLR-integrated HEK293 cells were selected through exposure to 5 μg/ml puromycin for 2 weeks. […] 8 hours following this procedure, cells were transfected with pCVL SFFV d14GFP Donor (Addgene Cat #31475), pCBASceI (Addgene Cat #26477)), or Donor+SceI using Lipofectamine 3000. 72 hours post-transfection, cells were trypsinized, collected, and analyzed with an Attune NxT flow cytometer (Thermofisher). To quantify the DNA repair events, ˜10,000-30,000 cells were acquired on an Attune NxT cytometer and analyzed using FCS Express software. Single cell events were determined by gating on the area against the width of the forward scatter pulse signal. Debris removal was performed by excluding events with very low forward and side scatter. For determining % of GFP and mCherry positive cells we established positive and negative populations using mock transfections as negative controls and GFP or mCherry transfected samples as Fluorescence Minus One controls.

[3] = system: HEK293-ACE reporter cells; experiment: ACE CRISPR/Cas9 reporter system; format: cell-based, human; settings: cGAMP transfection; interferon β 50 ng/ml
Procedure: ACE CRISPR/Cas9 reporter system: The ACE reporter (Addgene #109428) described previously (Aird et al., 2018; St. Martin et al., 2018) was integrated in HEK293 cells using lentiviral transduction. ACE reporter integrated cells (GFP+) were sorted in a Becton Dickinson Influx Cell Sorter and propagated. […] 72 hours post RNP transfection, cells were trypsinized, collected, and analyzed with an Attune NxT flow cytometer (Thermofisher). To quantify the HDR DNA repair events, ˜10,000-30,000 cells were acquired on an Attune NxT cytometer and analyzed using FCS Express software. Single cell events were determined by gating on the area against the width of the forward scatter pulse signal. Debris removal was performed by excluding events with very low forward and side scatter. For determining % of mCherry positive cells we established positive and negative populations using mock transfections as negative controls and mCherry transfected samples as Fluorescence Minus One controls.

U2OS-STING cells [4] = experiment: RIF1 and phospho-53BP1 foci immunofluorescence; format: cell-based, human; settings: pretreated with cGAMP, then etoposide or camptothecin
Procedure: Immunofluorescence Staining: 16,500 adherent cells/cm^2 were plated on a gelatin coated 8-chamber slide (VWR, Catalogue #62407-296) and treated as indicated. Media was removed and cells were washed with 1×PBS with Ca^2+/Mg^2+ and fixed with 4% PFA for 20 minutes. Fixed cells were permeabilized with PBS+0.1% Triton-X and washed 3 times with PBS+0.1% Tween20. After treatment as indicated, non-adherent THP1 cells were collected by centrifugation, washed in cold PBS and fixed in PFA. Post-fixation, they were washed with PBS, spotted on gelatin coated “PTFE” Printed Slides (Electron Microscopy Sciences, Cat #63424-06), and air-dried. For γH2AX staining, permeabilized cells were blocked in Serum-free DAKO Protein Block (Agilent, Catalogue #X0909) for 1 hr at room temperature. Cells were incubated in primary antibody (γH2AX, 1:500; anti-HA, 1:100; Table 1) in DAKO antibody diluent at 4° C. overnight on a rocker platform. U2OS-STING cells undergoing Rad51 staining were first fixed in methanol for 20 minutes in −20° C., blocked for 1 hr with donkey block (2% normal donkey serum, 1% BSA, 0.1% Triton X 100, 0.05% Tween20, 0.05% Sodium Azide in PBS), then finally incubated in an anti-Rad51 antibody overnight at 4° C. (Bio-academia Cat #70-001, 1:6000 in 5% milk in TBST). […]

PARylation = experiment: PolyADP-ribosylation (PARylation) immunoblot; format: cell-based, human
Text: Cells were collected by centrifugation, washed once with ice-cold PBS, lysed in RIPA buffer and analyzed by western blot to detect PARylation using pADPr Antibody (Santa Cruz sc-56198).

THP1 cells = experiment: CellTiter 96 AQueous One Solution Cell Proliferation (MTS) assay; format: cell-based, human
Procedure: Cell Viability Assay: MTS assays were performed using the CellTiter 96 AQueous One Solution Cell Proliferation Assay (Promega) according to the manufacturer's instructions. […] 48 hours the later MTS assay was performed according the to manufacturer's protocol.

## Nc1nc2c(ncn2[C@@H]2O[C@@H]3COP(=O)(O)O[C@H]4[C@@H](O)[C@H](n5cnc6c(N)ncnc65)O[C@@H]4COP(=O)(O)O[C@@H]2[C@@H]3O)c(=O)[nH]1 [cGAMP, cyclic guanosine monophosphate-adenosine monophosphate]
γH2AX; WT, STING−/−, shIFNAR THP1 cells, 16 hours
  cGAMP-induced pan-nuclear γH2AX staining: suppressed in STING^−/− but not in sh-IFNAR THP1 cells
γH2AX; human RPE cells, doxorubicin 2 hours, cGAMP or HT-DNA 6 hours
  γH2AX staining pattern: γH2AX marked by pan-nuclear staining
PARP1, PARP2, Tankyrase; THP1 and HEK293 cells
  abundance of PARP1: significantly augmented
PARP1, PARP2, Tankyrase; cGAMP-stimulated cells
  abundance of PARP1, PARP2, Tankyrase: no decrease in the abundance of PARP1, PARP2, or Tankyrase
PARP; THP1, cGAMP 6 hours, Rucaparib 10 μM, 6 hr
  PARP enzymatic activity in cell lysates: reduction in the PARP enzymatic activity
PARP; WT and STING−/− THP1
  STING dependence of cGAMP-induced reduction in PARP enzymatic activity: dependent on STING
[1]
  EdU-positive cells: diminished count of hRPE and STING-U2OS EdU-positive cells
U2OS-STING cells [2]
  DNA damage-induced RAD51 and RPA foci formation: suppressed DNA damage-induced RAD51 and RPA foci formation in EdU-positive S-phase cells
HEK293-TrLR cells; 1 μM Rucaparib
  HDR suppression by cGAMP in rucaparib-pretreated cells: ineffective at HDR suppression in cells pretreated with rucaparib
HEK293-TrLR cells; 25 μM KU-55933
  HDR in ATM inhibitor treated cells, mock vs. cGAMP: still suppressed HDR
HEK293-TrLR cells; I-SceI with donor, 72 hours
  HDR frequency: significantly reduced the prevalence of HDR
HEK293-TrLR cells; I-SceI, 72 hours
  NHEJ frequency: unaffected in either case
[3]
  HDR-mediated CRISPR editing (mCherry positive cells): significantly dampened HDR-mediated CRISPR editing
U2OS-STING cells [4]
  RIF1 and phospho-53BP1 foci formation: augmented the RIF1 and phospho-53BP1 foci formation
PARylation; 25 μM KU-55933
  cGAMP-induced suppression of protein PARylation in ATM-inhibited cells: proceeded normally in ATM-inhibited cells
PARylation; WT THP1, H2O2 or doxorubicin
  total cellular level of protein PARylation: substantially reduced total cellular level of protein PARylation
PARylation; WT THP1, cGAMP 6 hours, H2O2 10 minutes, anti-PARP1 IP
  PARP1 PARylation: notably reduced
PARylation; WT and STING−/− THP1, 250 μM H2O2 10 minutes
  STING requirement for cGAMP-induced suppression of protein PARylation: STING was required
THP1 cells; WT THP1, 10 μM Rucaparib, 10Gy, 48 hours
  sensitization to IR in rucaparib-pretreated cells: unable to further sensitize cells to IR
THP1 cells; WT THP1, 10Gy, 48 hours
  sensitivity to ionizing radiation (cell survival): more sensitive to ionizing radiation (IR)
THP1 cells; WT THP1 post cGAMP treatment
  THP1 cell proliferation: inhibited THP1 cell proliferation
